Measurements: patent publication US10736974B2, “Scaffolds and multifunctional intermediates for imaging PSMA and cancer therapy” (THE JOHNS HOPKINS UNIVERSITY, priority 2014, dated 2020)
Read-outs that look alike come from different tables or passages of the source.

Tests used:
[1] = target: T1, PSMA (Homo sapiens (Human), UniProt Q04609); test: NAALADase assay: PSMA inhibitory activity, fluorescence-based Amplex Red Glutamic Acid assay, lysates of LNCaP cell extracts; format: biochemical
Protocol: Briefly, lysates of LNCaP cell extracts (25 μL) were incubated with the inhibitor (12.5 μL) in the presence of 4 μM N-acetylaspartylglutamate (NAAG) (12.5 μL) for 120 min. The amount of the glutamate released by NAAG hydrolysis was measured by incubating with a working solution (50 μL) of the Amplex Red Glutamic Acid Kit for 60 min. […] Assays were performed in triplicate. Data analysis was performed using GraphPad Prism version 4.00 for Windows (GraphPad Software, San Diego, Calif.).

[2] = target: T1, PSMA; details: cited from earlier work; for blood pool and salivary / lacrimal gland uptake in clinical PET imaging: patients
[3] = target: T1, PSMA; details: from Chen, 2008; read-out: Ki, PSMA inhibition; cited from earlier work
[4] = Table 3, Cheng-Prusoff conversion, read-out: Ki

T1 sequence (Q04609 whole entry): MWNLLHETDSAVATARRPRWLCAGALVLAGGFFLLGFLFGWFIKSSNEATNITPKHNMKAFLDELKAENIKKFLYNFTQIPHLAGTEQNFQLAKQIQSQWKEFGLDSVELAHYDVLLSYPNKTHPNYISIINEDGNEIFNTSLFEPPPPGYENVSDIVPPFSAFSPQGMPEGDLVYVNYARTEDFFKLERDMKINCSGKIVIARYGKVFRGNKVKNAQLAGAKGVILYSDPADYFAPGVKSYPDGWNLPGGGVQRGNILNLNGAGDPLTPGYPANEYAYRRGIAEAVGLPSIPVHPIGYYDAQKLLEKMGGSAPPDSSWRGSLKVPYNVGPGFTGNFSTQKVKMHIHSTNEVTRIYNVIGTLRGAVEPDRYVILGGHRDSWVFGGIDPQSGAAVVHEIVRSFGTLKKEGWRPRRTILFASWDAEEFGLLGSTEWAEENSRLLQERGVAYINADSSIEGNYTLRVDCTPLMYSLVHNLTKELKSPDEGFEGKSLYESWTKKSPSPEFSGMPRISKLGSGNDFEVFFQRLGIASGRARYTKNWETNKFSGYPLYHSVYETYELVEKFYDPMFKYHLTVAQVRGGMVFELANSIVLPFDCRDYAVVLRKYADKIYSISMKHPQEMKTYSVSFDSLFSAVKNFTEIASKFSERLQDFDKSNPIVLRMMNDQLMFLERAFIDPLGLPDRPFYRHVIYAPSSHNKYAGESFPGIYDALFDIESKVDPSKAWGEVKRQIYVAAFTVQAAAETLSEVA

## O=C(O)CC[C@H](NC(=O)O[C@@H](CCCCNC(=O)c1ccc(-c2ccccc2)cc1F)C(=O)O)C(=O)O [XY-42]
[1]; Table 3
  IC50: 86 nM
[1]; [4]
  Ki: 13 nM

## O=C(O)CC[C@H](NC(=O)O[C@@H](CCCCNC(=O)c1ccc2ccccc2c1)C(=O)O)C(=O)O [XY-21]
[1]; Table 3
  IC50: 60 nM
[1]; [4]
  Ki: 12 nM

## CNC(=O)c1ccc(C(=O)NCCCC[C@H](OC(=O)N[C@@H](CCC(=O)O)C(=O)O)C(=O)O)cc1 [XY-30]
[1]; Table 3
  IC50: 1300 nM
[1]; [4]
  Ki: 270 nM

## O=C(O)CC[C@H](NC(=O)NC[C@@H](NC(=O)CCCNC(=O)c1ccc(-c2ccccc2)cc1F)C(=O)O)C(=O)O [XY-46]
[1]; Table 3
  IC50: 2 nM
[1]; [4]
  Ki: 0.4 nM

## COc1ccc(C(=O)NCCCC[C@H](OC(=O)N[C@@H](CCC(=O)O)C(=O)O)C(=O)O)cc1 [XY-27]
[1]; Table 3
  IC50: 100 nM
[1]; [4]
  Ki: 21 nM

## O=C(O)CC[C@H](NC(=O)NC[C@H](NC(=O)c1ccc(F)cc1)C(=O)O)C(=O)O [XY-34]
[1]; Table 3
  IC50: 43000 nM
[1]; [4]
  Ki: 9.7 nM

## CC(=O)Nc1ccc(C(=O)NCCCC[C@H](OC(=O)N[C@@H](CCC(=O)O)C(=O)O)C(=O)O)cc1 [XY-29]
[1]; Table 3
  IC50: 660 nM
[1]; [4]
  Ki: 130 nM

## O=C(O)CC[C@H](NC(=O)N[C@@H](CSCc1ccc(I)cc1)C(=O)O)C(=O)O [DCIBC, reference compound]
[1]; Table 4, read-out: Ki
  Ki: 0.03 nM

## O=C(O)CC[C@H](NC(=O)NC[C@H](NC(=O)CCCNC(=O)c1ccc(F)cc1)C(=O)O)C(=O)O [XY-35]
[1]; Table 3
  IC50: 8000 nM
[1]; [4]
  Ki: 1600 nM

## O=C(O)CC[C@H](NC(=O)N[C@@H](CCCCNC(=O)Nc1ccc([131I])cc1)C(=O)O)C(=O)O [[^131I]-MIP-1095]
[2]; Zechmann, 2014
  dose-limiting organs from absorbed dose estimates: salivary glands, lower large intestinal wall, and kidneys

## CSc1ccc(C(=O)NCCCC(=O)N[C@H](CNC(=O)N[C@@H](CCC(=O)O)C(=O)O)C(=O)O)cc1 [XY-40]
[1]; Table 3
  IC50: 1.3 nM
[1]; [4]
  Ki: 0.26 nM

## O=CO[C@@H](CNC(=O)N[C@@H](CCC(=O)O)C(=O)O)NC(=O)CCCNC(=O)c1ccc(I)cc1F [XY-44]
[1]; Table 4, read-out: Ki
  Ki: 0.017 nM
[1]; read-out: Ki, PSMA inhibition
  Ki: 0.02 nM

## COc1ccc2cc(C(=O)NCCCC[C@H](OC(=O)N[C@@H](CCC(=O)O)C(=O)O)C(=O)O)ccc2c1 [XY-22]
[1]; Table 3
  IC50: 104 nM
[1]; [4]
  Ki: 20 nM

## O=C(O)CC[C@H](NC(=O)O[C@@H](CCCCNC(=O)c1ccc(SCc2ccc(F)cc2)cc1)C(=O)O)C(=O)O [XY-39]
[1]; Table 3
  IC50: 46 nM
[1]; [4]
  Ki: 9.3 nM

## O=C(O)CC[C@H](NC(=O)O[C@@H](CCCCNC(=O)c1ccc(I)cc1)C(=O)O)C(=O)O [XY-26]
[1]; Table 3
  IC50: 4.3 nM
[1]; read-out: Ki, PSMA inhibition
  Ki: 0.9 nM

## O=C(O)CC[C@H](NC(=O)O[C@@H](CCCCNC(=O)c1ccc(-c2ccc(OCCF)cc2)cc1)C(=O)O)C(=O)O [XY-24]
[1]; Table 3
  IC50: 120 nM
[1]; [4]
  Ki: 22 nM

## O=C(O)CC[C@H](NC(=O)O[C@@H](CCCCNC(=O)c1ccc(I)cc1OCCCCNC(=O)c1ccc(I)cc1)C(=O)O)C(=O)O [XY-50]
[1]; Table 3
  IC50: 3800 nM
[1]; [4]
  Ki: 770 nM

## Cc1cc(Br)ccc1C(=O)NCCCC(=O)N[C@H](CNC(=O)N[C@@H](CCC(=O)O)C(=O)O)OC=O [XY-58]
[1]; Table 4, read-out: Ki
  Ki: 0.036 nM
[1]; read-out: Ki, PSMA inhibition
  Ki: 0.04 nM

## O=C(O)CC[C@H](NC(=O)N[C@@H](CSCc1ccc([18F])cc1)C(=O)O)C(=O)O [[^18F]DCFBC]
[2]
  blood pool and salivary / lacrimal gland uptake in clinical PET imaging: persistent blood pool occupancy but low salivary gland uptake

## O=C(O)CC[C@H](NC(=O)O[C@@H](CCCCNC(=O)c1ccc(Cl)cc1F)C(=O)O)C(=O)O [XY-49]
[1]; Table 3
  IC50: 192 nM
[1]; [4]
  Ki: 38 nM

## COc1ccc(-c2ccc(C(=O)NCCCC[C@H](OC(=O)N[C@@H](CCC(=O)O)C(=O)O)C(=O)O)cc2)cc1 [XY-23]
[1]; Table 3
  IC50: 30 nM
[1]; [4]
  Ki: 6 nM

## CSc1ccc(C(=O)NCCCC[C@H](OC(=O)N[C@@H](CCC(=O)O)C(=O)O)C(=O)O)cc1 [XY-28]
[1]; Table 3
  IC50: 24 nM
[1]; [4]
  Ki: 4.8 nM

## O=C(O)CC[C@H](NC(=O)O[C@@H](CCCCNC(=O)c1ccc(F)cc1)C(=O)O)C(=O)O [XY-20, (S)-2-(((((S)-1-carboxy-5-(4-fluorobenzamido)pentyl)oxy)carbonyl)amino)pentanedioic acid]
[1]
  reduction in binding affinity compared to 9 (YC-I-26): more than 150 fold
[1]; Table 3
  IC50: 210 nM
[1]; [4]
  Ki: 42 nM

## O=C(O)CC[C@H](NC(=O)O[C@H](CCNC(=O)c1ccc(F)cc1)C(=O)O)C(=O)O [XY-17]
[1]; Table 3
  IC50: 4900 nM
[1]; [4]
  Ki: 980 nM

## O=C(O)CC[C@H](NC(=O)N[C@@H](CCCCNC(=O)Nc1ccc([123I])cc1)C(=O)O)C(=O)O [[^124I]-MIP-1095]
[2]
  blood pool and salivary / lacrimal gland uptake in clinical PET imaging: rapid clearance from the blood but high uptake in salivary and lacrimal glands

## O=CO[C@@H](CNC(=O)N[C@@H](CCC(=O)O)C(=O)O)NC(=O)CCCNC(=O)c1ccc(Br)cc1 [XY-59]
[1]; Table 4, read-out: Ki
  Ki: 0.02 nM

## O=C(O)CC[C@H](NC(=O)O[C@@H](CCCCNC(=O)c1ccc(SCCF)cc1)C(=O)O)C(=O)O [XY-38]
[1]; Table 3
  IC50: 41 nM
[1]; [4]
  Ki: 8.3 nM

## O=C(O)CC[C@H](NC(=O)O[C@@H](CCNC(=O)c1ccc(F)cc1)C(=O)O)C(=O)O [XY-16]
[1]; Table 3
  IC50: 4500 nM
[1]; [4]
  Ki: 900 nM

## O=CO[C@@H](CNC(=O)N[C@@H](CCC(=O)O)C(=O)O)NC(=O)CCCNC(=O)c1ccc(C2=CCCCC2)cc1F [XY-45]
[1]; Table 4, read-out: Ki
  Ki: 0.1 nM

## O=C(O)CC[C@H](NC(=O)O[C@@H](CCCCNC(=O)c1ccc(I)cc1F)C(=O)O)C(=O)O [XY-43]
[1]; Table 3
  IC50: 1.6 nM
[1]; [4]
  Ki: 0.32 nM

## O=CO[C@@H](CNC(=O)N[C@@H](CCC(=O)O)C(=O)O)NC(=O)CCCNC(=O)c1ccc(F)cc1 [YC-I-26, reference compound]
[1]; Table 4, read-out: Ki
  Ki: 0.3 nM
[3]
  Ki: 0.25 nM
